In patent publication US20140271517A1, “DEODORANT FORMULATION” (priority 2013, published 2014):

Experiments:
[1] = reported pH of the agent; cited from earlier work
[2] = broad cross section of people; '16-20 hour protection and more'; previously presented in U.S. Pat. No. 5,512,274; cited from earlier work
[3] = test system: microorganisms responsible for the odour in perspiration; assay: destruction of odour-causing microorganisms; conditions: disinfectant agent in the MgO/ZnO deodorant formulation, 0.5% to 1% by weight
Text: It is believed that the previously recognized synergy between the zinc and magnesium compounds has been further augmented with the disinfection capacity of a potassium and/or […]. Turning to the specific formulations, in a first embodiment, the deodorant formulation includes magnesium oxide in an amount of between 1% and 2.5% by weight and zinc oxide in an amount of between 0.5% and 1.5% by weight. In order to further augment the efficacy of the formulation, a disinfectant agent is included. As an example, potassium sulfate in an amount of between 0.5% and 1% by weight. Propylene glycol in an amount between 45% and 57% by weight is included. Other polyols may be substituted such as glycenol, etc. Sodium stearate is also present in am amount between 4% and 8% by weight. Glycerin is also present in an amount from between 6% and 10% by weight. The balance of the formulation is obviously water. […] The provision for the suspension is very convenient, since the active ingredients are all present and this suspension can used as a precursor in the formulation of other deodorizing products.

**Q.** Which pH [1] does the source give for `[Ca+2].[OH-].[OH-]` [Lime, calcium hydroxide] here?
**A.** ≥ 12.5

**Q.** Which results are given for `[Mg+2].[OH-].[OH-]` [magnesium hydroxide]?
**A.** duration of deodorant protection [2]: 16 to 20 h; pH [1]: ~10.0

**Q.** For `O=S(=O)([O-])[O-].[K+].[K+]` [potassium sulfate], which “efficacy in destroying the microorganisms responsible for the odour in perspiration” value [3] is on record?
**A.** particularly effective
